This is an account of results in PMC3366684, “Studies on the Synthesis of Derivatives of Marine-Derived Bostrycin and Their Structure-Activity Relationship against Tumor Cells” (Marine Drugs, 2012).

The test system of one data set is MCF-7 cells. The experiment in a line: MTT cytotoxicity assay, MCF-7. The format is cell-based, human. Conditions: MCF7; human breast cancer cell line; MTT, 48 h exposure; mean ± SD, three independent experiments. As to the method:
(§1) All compounds were evaluated for their in vitro cytotoxic activity against five human cancer cell lines including human breast MCF-7, human breast MDA-MB-435, human lung A549, human liver HepG2 and human colon HCT-116, and compared with their effects on the immortalized human breast epithelial cell line MCF-10A by MTT assay using epirubicin (an anticancer drug used widely in the clinic) as positive control.
(§2) MCF-7, MDA-MB-435, A549, HepG2 and HCT-116 cells were cultured in Dulbecco’s modification Eagle’s medium (DMEM, Invitrogen, Carlsbad, CA, USA) supplemented with 10% fetal bovine serum (FBS, Hyclone, Logan, UT, USA), 2 mM L-glutamine, 100 μg/mL streptomycin and 100 U/mL penicillin (Invitrogen). MCF-10A cells were cultured in keratinocyte serum free medium (KSFM) supplemented with 0.1–0.2 ng/mL human recombinant epidermal growth factor and 20–30 μg/mL bovine pituitary extract (Invitrogen). The cells were incubated at 37 °C in a humidified atmosphere with 5% CO2.
(§3) Cells were harvested during logarithmic growth phase and seeded in 96-well plates at a density of 1 × 10^4 cells/mL, and cultured at 37 °C in a humidified incubator (5% CO2) for 24 h, followed by exposure to various concentrations of compounds tested for 48 h. Subsequently 20 μL of MTT (Genview, Houston, TX, USA) solution (5 mg/mL) was added to each well and mixed, the cells were then incubated for an additional 4 h. Culture supernatant was moved, 150 μL of DMSO (Sangon Biotech, Shanghai, China) was added to each well to fully dissolve the MTT-formazan crystals. Cell growth inhibition was determined by measuring the absorbance (Abs) at λ = 570 nm using a microplate reader and calculated according to the following equation:
(§4) Growth inhibition = (1 − OD of treated cells/OD of control cells) × 100%
(§5) The half maximal inhibitory concentrations (IC50) were obtained from liner regression analysis of the concentration-response curves plotted for each tested compound.
Background: Tetrazolium assays rely on reduction of a dye to a coloured formazan, in cell work by metabolically active cells.

The test system of another data set is HepG2 cells. The experiment in a line: MTT cytotoxicity assay, HepG2. The conditions noted are these: Homo sapiens, HepG2, 48 h, human liver cancer cell line; MTT, 48 h exposure; mean ± SD, three independent experiments. Format: cell-based, human. As for the experimental part:
as §1, §2, §3, §4, §5

The subject of the next data set is MDA-MB-435 cells. The experiment in a line: MTT cytotoxicity assay, MDA-MB-435. Format: cell-based, human. The conditions noted are these: MDA-MB-435; human breast cancer cell line; MTT, 48 h exposure; mean ± SD, three independent experiments. As for the experimental part: as §1, §2, §3, §4, §5
The next data set has as its system A549 cells. The experiment in a line: MTT cytotoxicity assay, A549. Format: cell-based, human. Conditions: A549; human lung cancer cell line; MTT, 48 h exposure; mean ± SD, three independent experiments. As to the method:
as §1, §2, §3, §4, §5

Data set [1] is described as follows: MTT cytotoxicity assay, MCF-10A. Format: cell-based. The conditions noted are these: MCF-10A cells, immortalized human breast epithelial cell line, 48 h exposure, mean ± SD, three independent experiments. As for the experimental part:
as §1, §2, §3, §4, §5

Another data set concerns HCT-116 cells. The experiment in a line: MTT cytotoxicity assay, HCT-116. The format is cell-based, human. The conditions noted are these: HCT-116; human colon cancer cell line; MTT, 48 h exposure; mean ± SD, three independent experiments. As to the method:
as §1, §2, §3, §4, §5

The test system of data set [2] is five human cancer cell lines (MCF-7, MDA-MB-435, A549, HepG2, HCT-116). The experiment in a line: MTT cytotoxicity assay, panel of five human cancer cell lines (summary statements). The format is cell-based. Conditions: MCF-7, MDA-MB-435, A549, HepG2 and HCT-116, read-out: IC50 against the tested human cancer cell lines (summary over the panel). As for the experimental part: as §1, §2
Cells were harvested during logarithmic growth phase and seeded in 96-well plates at a density of 1 × 10^4 cells/mL, and cultured at 37 °C in a humidified incubator (5% CO2) for 24 h, followed by exposure to various concentrations of compounds tested for 48 h. […] Cell growth inhibition was determined by measuring the absorbance (Abs) at λ = 570 nm using a microplate reader and calculated according to the following equation: […]

A word on the melting point: it is the temperature of the solid-liquid transition. A word on the IC50: it is the midpoint of a concentration-inhibition curve. The molecule `C[C@]1(O)Cc2c(O)c3c(c(O)c2[C@H](O)[C@H]1O)C(=O)C=C(NCCOCCO)C3=O` [Compound 14, 6-[(2″-Hydroxyethoxy)ethylamino]-6-demethoxybostrycin] displayed a melting point of 112 to 113 °C. Further, the IC50 with MCF-7 cells was more than 50 µM. The molecule also came in with an IC50 in the data set with HepG2 cells of more than 50 µM. The IC50 in the data set with MDA-MB-435 cells was more than 50 µM. For the same molecule, the IC50 in the data set with A549 cells was more than 50 µM. In addition, the IC50 at 48 h in data set [1] is more than 50 µM. For the same molecule, the IC50 in the data set with HCT-116 cells was more than 50 µM.

Turning to `COC1=CC(=O)c2c(O)c3c(c(O)c2C1=O)C[C@]1(C)OCO[C@@H]1[C@H]3OCO` [Compound 7, 1-O-(hydroxymethyl)-2,3-O-(methylene) Bostrycin], the melting point lay within 233 to 234 °C. In the data set on MCF-7 cells, the IC50 stood at 2.52 ± 0.26 µM. The molecule also gave an IC50 in the data set with HepG2 cells of 4.58 ± 0.5 µM. The molecule also yielded an IC50 in the data set with MDA-MB-435 cells of 4.25 ± 0.57 µM. This molecule showed an IC50 in the data set with A549 cells of 0.78 ± 0.04 µM. This molecule also had an IC50 at 48 h in data set [1] of 4.79 ± 0.52 µM. Also, in the data set with HCT-116 cells, the IC50 turned out to be 3.06 ± 0.1 µM.

Consider `CCCNC1=CC(=O)c2c(O)c3c(c(O)c2C1=O)C[C@](C)(O)[C@H](O)[C@H]3O` [Compound 10, 6-(n-Propylamino)-6-demethoxybostrycin], for which the melting point is 210 to 211 °C. Also, the IC50 in the data set with MCF-7 cells amounted to 14 ± 0.98 µM. The IC50 in the data set on HepG2 cells was found to be 18 ± 0.6 µM. In the data set on MDA-MB-435 cells, the IC50 was more than 50 µM. Further, in the data set with A549 cells, the IC50 came out at 21.5 ± 1.43 µM. The molecule also displayed an IC50 at 48 h in data set [1] of more than 50 µM. The molecule further yielded an IC50 in the data set with HCT-116 cells of 26.4 ± 0.89 µM.

`COc1cc(O)c2c(c1O)C(=O)c1cc(C)ccc1C2=O` [Compound 4, Austrocortinin] came in with a melting point of 232 to 233 °C. Also, the half-maximal inhibitory concentration (IC50) in data set [2] was more than 50 µM. This molecule also had an IC50 with MCF-7 cells of more than 50 µM. Moreover, in the data set with HepG2 cells, the IC50 is more than 50 µM. Also, in the data set on MDA-MB-435 cells, the IC50 is 41.6 ± 2.63 µM. In the data set with A549 cells, the IC50 was more than 50 µM. In addition, in data set [1], the IC50 at 48 h is more than 50 µM. For the same molecule, in the data set with HCT-116 cells, the IC50 was more than 50 µM.

`COC1=CC(=O)c2c(cc3c(c2O)C[C@@H](O)[C@@](C)(O)C3)C1=O` [Compound 3, Nigrosporin B] registered a melting point of more than 300 °C. The IC50 in the data set with MCF-7 cells was determined as 6.19 ± 0.6 µM. Further, in the data set with HepG2 cells, the IC50 stood at 31 ± 0.71 µM. The IC50 in the data set with MDA-MB-435 cells was 2.91 ± 0.18 µM. In addition, half-maximal inhibition with A549 cells (IC50) was put at 4.72 ± 0.17 µM. In addition, the midpoint of inhibition in data set [1], the IC50 at 48 h, lay at 28.6 ± 0.91 µM. In the data set on HCT-116 cells, half-maximal inhibition (IC50) required 4.7 ± 0.39 µM.

The molecule `CCSC1=C(SCC)C(=O)c2c(O)c3c(c(O)c2C1=O)C[C@](C)(O)[C@H](O)[C@H]3O` [Compound 23, 6,7-bis(Ethylthio)-6-demethoxybostrycin] yielded a melting point of 180 to 181 °C. This molecule yielded an IC50 in the data set on MCF-7 cells of 0.71 ± 0.01 µM. Further, the midpoint of inhibition in the data set with HepG2 cells, the IC50, lay at 6.9 ± 0.26 µM. In the data set with MDA-MB-435 cells, half-maximal inhibition (IC50) was put at 0.76 ± 0.06 µM. This molecule came in with an IC50 in the data set with A549 cells of 4.07 ± 0.51 µM. Moreover, in data set [1], the IC50 at 48 h was determined as 14.8 ± 0.96 µM. In the data set on HCT-116 cells, this molecule registered an IC50 of 0.95 ± 0.06 µM.

Regarding `C[C@]1(O)Cc2c(O)c3c(c(O)c2[C@H](O)[C@H]1O)C(=O)C=C(Nc1ccccc1)C3=O` [Compound 15, 6-(Phenylamino)-6-demethoxybostrycin], the melting point lay within 226 to 227 °C. In addition, the IC50 with MCF-7 cells turned out to be 3.72 ± 0.27 µM. This molecule returned an IC50 in the data set with HepG2 cells of more than 50 µM. This molecule gave an IC50 in the data set with MDA-MB-435 cells of 10.3 ± 0.45 µM. In the data set with A549 cells, this molecule showed an IC50 of 4.87 ± 0.43 µM. In data set [1], the IC50 at 48 h was found to be 41.6 ± 0.51 µM. This molecule showed an IC50 with HCT-116 cells of 4.84 ± 0.25 µM.

For the molecule `CCCCNC1=CC(=O)c2c(O)c3c(c(O)c2C1=O)C[C@](C)(O)[C@H](O)[C@H]3O` [Compound 11, 6-(n-Butylamino)-6-demethoxybostrycin], the melting point was in the range of 236 to 237 °C. Also, the IC50 in the data set on MCF-7 cells was 1.08 ± 0.21 µM. Besides, in the data set with HepG2 cells, half-maximal inhibition (IC50) required 35.7 ± 1.29 µM. In the data set on MDA-MB-435 cells, the IC50 was more than 50 µM. The same molecule gave an IC50 in the data set with A549 cells of 25.1 ± 0.74 µM. Moreover, in data set [1], the IC50 at 48 h is more than 50 µM. The same molecule had an IC50 in the data set with HCT-116 cells of 36.5 ± 0.53 µM.

As for `CCCCSC1=C(SCCCC)C(=O)c2c(O)c3c(c(O)c2C1=O)C[C@](C)(O)[C@H](O)[C@H]3O` [Compound 24, 6,7-bis(n-Butylthio)-6-demethoxybostrycin], the melting point lay within 124 to 125 °C. In the data set on MCF-7 cells, half-maximal inhibition (IC50) required 2.45 ± 0.48 µM. Also, the IC50 in the data set on HepG2 cells was 4.03 ± 0.13 µM. The IC50 with MDA-MB-435 cells stood at 7.05 ± 0.56 µM. For the same molecule, the IC50 in the data set with A549 cells was 4.06 ± 0.42 µM. The same molecule showed an IC50 at 48 h in data set [1] of 30.6 ± 2.54 µM. This molecule gave an IC50 in the data set with HCT-116 cells of 3.25 ± 0.54 µM.

Take `C[C@]1(O)Cc2c(O)c3c(c(O)c2[C@H](O)[C@H]1O)C(=O)C=C(NCc1ccccc1)C3=O` [Compound 17, 6-(Benzylamino)-6-demethoxybostrycin]: the melting point was in the range of 153 to 154 °C. Besides, the IC50 with MCF-7 cells is 28.7 ± 2.37 µM. Besides, the IC50 with HepG2 cells is more than 50 µM. Further, the IC50 in the data set on MDA-MB-435 cells stood at 40.4 ± 1.49 µM. Further, in the data set on A549 cells, the IC50 was 21.3 ± 2.02 µM. For the same molecule, in data set [1], half-maximal inhibition (IC50 at 48 h) required 19.8 ± 0.63 µM. The molecule also registered an IC50 in the data set on HCT-116 cells of 20.6 ± 0.37 µM.

The molecule `COc1ccc(CNC2=CC(=O)c3c(O)c4c(c(O)c3C2=O)C[C@](C)(O)[C@H](O)[C@H]4O)cc1` [Compound 18, 6-(p-Methoxybenzylamino)-6-demethoxybostrycin] yielded a melting point of 149 to 150 °C. The IC50 in the data set with MCF-7 cells was 9.17 ± 0.28 µM. The IC50 in the data set on HepG2 cells was more than 50 µM. For the same molecule, it took 25.6 ± 1.71 µM to reach half-maximal inhibition with MDA-MB-435 cells (IC50). For the same molecule, the midpoint of inhibition in the data set with A549 cells, the IC50, lay at 15.2 ± 0.42 µM. Besides, in data set [1], the IC50 at 48 h came to 27.7 ± 0.93 µM. In the data set with HCT-116 cells, this molecule yielded an IC50 of 13.6 ± 1.85 µM.

As to `C[C@]1(O)Cc2c(O)c3c(c(O)c2[C@H](O)[C@H]1O)C(=O)C=C(NCCO)C3=O` [Compound 13, 6-(2′-Hydroxyethylamino)-6-demethoxybostrycin], the melting point fell in the range of 202 to 203 °C. Further, it took 35.6 ± 1.4 µM to reach half-maximal inhibition in the data set with MCF-7 cells (IC50). For the same molecule, inhibition in the data set on HepG2 cells was half-maximal at 32.2 ± 2.43 µM (IC50). In the data set on MDA-MB-435 cells, the IC50 is more than 50 µM. In the data set with A549 cells, this molecule had an IC50 of more than 50 µM. This molecule also came in with an IC50 at 48 h in data set [1] of more than 50 µM. In the data set on HCT-116 cells, this molecule showed an IC50 of 35.9 ± 1.13 µM.
